Data as given in patent US8921362B2, “6,7-dialkoxy quinazoline derivatives and methods of treating drug resistant and other tumors” (Natco Pharma Limited, priority 2008, dated 2014).

Key:
Assay in all cases: KinomeScan
Assay type in all cases: binding
Details in all cases: read-out: % Ctrl @ 10000 nM
FLT3(K663Q) = target: T1, FLT3(K663Q) (Homo sapiens, UniProt P36888, K663Q)
T1 construct: host or cells: T7 phage in E. coli host derived from BL21
Outline: (§1)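 In this phage-display binding screen, compound competes with immobilized ligand for the kinase fusion, and bead-bound phage, eluted after washing, is titered by qPCR.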

TNK2 = target: T2, TNK2 (Homo sapiens, UniProt Q07912)
T2 construct: host or cells: E. coli host derived from BL21, T7 phage
Outline: as §1

LIMK1 = target: T3, LIMK1 (Homo sapiens, UniProt P53667)
T3 construct: host or cells: T7 phage grown in E. coli host derived from BL21
Outline: as §1

JNK2 = target: T4, JNK2 (Homo sapiens, UniProt P45984)
T4 construct: host or cells: T7 phage grown in E. coli host derived from BL21
Outline: as §1

DCAMKL1 = target: T5, DCAMKL1 (Homo sapiens, UniProt O15075)
T5 construct: purchased Ambit Biosciences Corp (KinomeScan); host or cells: T7 phage in E. coli host derived from BL21
Outline: as §1

RAF1 = target: T6, RAF1 (Homo sapiens, UniProt P04049)
T6 construct: host or cells: E. coli host derived from BL21, T7 phage display
Outline: as §1

MAP4K3 = target: T7, MAP4K3 (Homo sapiens, UniProt Q8IVH8)
T7 construct: host or cells: E. coli host derived from the BL21 strain, infected with T7 phage
Outline: as §1

PIK3CB = target: T8, PIK3CB (Homo sapiens, UniProt P42338)
T8 construct: host or cells: E. coli host derived from BL21, infected with T7 phage
Outline: as §1

TRKA = target: T9, TRKA (Homo sapiens, UniProt P04629)
T9 construct: host or cells: E. coli host derived from BL21, T7 phage
Outline: as §1

CAMK2A = target: T10, CAMK2A (Homo sapiens, UniProt Q9UQM7)
T10 construct: host or cells: E. coli host derived from BL21
Outline: as §1

RIPK2 = target: T11, RIPK2 (Homo sapiens, UniProt O43353)
T11 construct: host or cells: E. coli host derived from BL21, T7 phage display
Outline: as §1

MYLK = target: T12, MYLK (Homo sapiens, UniProt Q15746)
T12 construct: host or cells: T7 phage grown in E. coli host derived from BL21
Outline: as §1

AURKA = target: T13, AURKA (Homo sapiens, UniProt O14965)
T13 construct: host or cells: E. coli host derived from BL21
Outline: as §1

ADCK3 = target: T14, ADCK3 (Homo sapiens, UniProt Q8NI60)
T14 construct: host or cells: E. coli (BL21-derived), T7 phage lysate
Outline: as §1

FGFR4 = target: T15, FGFR4 (Homo sapiens, UniProt P22455)
T15 construct: host or cells: T7 phage in E. coli host derived from BL21
Outline: as §1

SgK085 = target: T16, SgK085 (Homo sapiens, UniProt Q86YV6)
T16 construct: host or cells: T7 phage grown in E. coli (BL21-derived)
Outline: as §1

YSK1 = target: T17, YSK1 (Homo sapiens, UniProt O00506)
T17 construct: host or cells: T7 phage grown in an E. coli host derived from BL21
Outline: as §1

LIMK2 = target: T18, LIMK2 (Homo sapiens, UniProt P53671)
T18 construct: host or cells: T7 phage grown in E. coli host derived from BL21
Outline: as §1

MEK1 = target: T19, MEK1 (Homo sapiens, UniProt Q02750)
T19 construct: host or cells: E. coli host derived from the BL21 strain, infected with T7 phage
Outline: as §1

CSF1R = target: T20, CSF1R (Homo sapiens, UniProt P07333)
T20 construct: host or cells: T7 phage in E. coli host derived from BL21
Outline: as §1

ACVR1 = target: T21, ACVR1 (Homo sapiens, UniProt Q04771)
T21 construct: host or cells: E. coli (BL21-derived), T7 phage lysate
Outline: as §1

PIM3 = target: T22, PIM3 (Homo sapiens, UniProt Q86V86)
T22 construct: host or cells: T7 phage in E. coli host derived from BL21
Outline: as §1

MARK2 = target: T23, MARK2 (Homo sapiens, UniProt Q7KZI7)
T23 construct: host or cells: E. coli host derived from the BL21 strain, infected with T7 phage
Outline: as §1

BTK = target: T24, BTK (Homo sapiens, UniProt Q06187)
T24 construct: host or cells: E. coli host derived from BL21
Outline: as §1

[1] = target: T25, RPS6KA5(Kin.Dom.-2-C-terminal) (Homo sapiens, UniProt O75582)
T25 construct: RPS6KA5(Kin.Dom.-2-C-terminal); host or cells: E. coli host derived from BL21, T7 phage display
Outline: as §1

AURKC = target: T26, AURKC (Homo sapiens, UniProt Q9UQB9)
T26 construct: host or cells: E. coli host derived from BL21
Outline: as §1

FRK = target: T27, FRK (Homo sapiens, UniProt P42685)
T27 construct: host or cells: T7 phage in E. coli host derived from BL21
Outline: as §1

CAMK2B = target: T28, CAMK2B (Homo sapiens, UniProt Q13554)
T28 construct: host or cells: E. coli host derived from BL21
Outline: as §1

MST4 = target: T29, MST4 (Homo sapiens, UniProt Q9P289)
T29 construct: host or cells: T7 phage grown in E. coli host derived from BL21
Outline: as §1

PIK3CA = target: T30, PIK3CA (Homo sapiens, UniProt P42336)
T30 construct: host or cells: E. coli host derived from BL21, infected with T7 phage
Outline: as §1

[2] = target: T31, RPS6KA1(Kin.Dom.-1-N-terminal) (Homo sapiens, UniProt Q15418)
T31 construct: RPS6KA1(Kin.Dom.-1-N-terminal); host or cells: E. coli host derived from BL21, T7 phage display
Outline: as §1

RIOK1 = target: T32, RIOK1 (Homo sapiens, UniProt Q9BRS2)
T32 construct: host or cells: E. coli host derived from BL21, T7 phage display
Outline: as §1

PIM1 = target: T33, PIM1 (Homo sapiens, UniProt P11309)
T33 construct: host or cells: T7 phage in E. coli host derived from BL21
Outline: as §1

T2 sequence (Q07912 whole entry): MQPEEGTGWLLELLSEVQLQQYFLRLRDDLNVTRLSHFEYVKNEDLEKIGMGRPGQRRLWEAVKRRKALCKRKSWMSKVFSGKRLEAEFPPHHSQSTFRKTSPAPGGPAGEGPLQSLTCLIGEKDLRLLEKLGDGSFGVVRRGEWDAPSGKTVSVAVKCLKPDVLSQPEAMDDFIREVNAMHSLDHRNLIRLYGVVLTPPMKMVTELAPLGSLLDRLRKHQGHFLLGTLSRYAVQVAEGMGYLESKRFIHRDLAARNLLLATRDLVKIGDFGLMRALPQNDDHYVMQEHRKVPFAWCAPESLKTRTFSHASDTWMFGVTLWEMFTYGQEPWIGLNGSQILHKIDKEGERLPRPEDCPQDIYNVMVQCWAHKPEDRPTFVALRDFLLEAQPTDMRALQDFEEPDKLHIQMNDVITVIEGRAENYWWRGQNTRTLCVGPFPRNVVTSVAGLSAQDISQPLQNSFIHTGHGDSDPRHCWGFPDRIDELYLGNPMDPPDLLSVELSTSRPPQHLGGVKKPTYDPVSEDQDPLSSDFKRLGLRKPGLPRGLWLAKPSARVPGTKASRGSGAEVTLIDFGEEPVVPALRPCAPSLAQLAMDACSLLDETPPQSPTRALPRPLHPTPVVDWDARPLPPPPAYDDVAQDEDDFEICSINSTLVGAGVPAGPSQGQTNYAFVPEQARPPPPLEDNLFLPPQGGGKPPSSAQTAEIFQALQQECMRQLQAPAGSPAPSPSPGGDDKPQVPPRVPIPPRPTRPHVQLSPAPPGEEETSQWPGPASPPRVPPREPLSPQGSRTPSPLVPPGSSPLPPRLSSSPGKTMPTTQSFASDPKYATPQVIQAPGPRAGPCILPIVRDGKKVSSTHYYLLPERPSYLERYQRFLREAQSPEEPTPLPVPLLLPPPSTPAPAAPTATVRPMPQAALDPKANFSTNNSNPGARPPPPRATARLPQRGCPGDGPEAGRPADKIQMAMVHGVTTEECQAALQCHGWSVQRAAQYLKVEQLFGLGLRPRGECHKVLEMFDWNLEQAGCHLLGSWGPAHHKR
T11 sequence (O43353 whole entry): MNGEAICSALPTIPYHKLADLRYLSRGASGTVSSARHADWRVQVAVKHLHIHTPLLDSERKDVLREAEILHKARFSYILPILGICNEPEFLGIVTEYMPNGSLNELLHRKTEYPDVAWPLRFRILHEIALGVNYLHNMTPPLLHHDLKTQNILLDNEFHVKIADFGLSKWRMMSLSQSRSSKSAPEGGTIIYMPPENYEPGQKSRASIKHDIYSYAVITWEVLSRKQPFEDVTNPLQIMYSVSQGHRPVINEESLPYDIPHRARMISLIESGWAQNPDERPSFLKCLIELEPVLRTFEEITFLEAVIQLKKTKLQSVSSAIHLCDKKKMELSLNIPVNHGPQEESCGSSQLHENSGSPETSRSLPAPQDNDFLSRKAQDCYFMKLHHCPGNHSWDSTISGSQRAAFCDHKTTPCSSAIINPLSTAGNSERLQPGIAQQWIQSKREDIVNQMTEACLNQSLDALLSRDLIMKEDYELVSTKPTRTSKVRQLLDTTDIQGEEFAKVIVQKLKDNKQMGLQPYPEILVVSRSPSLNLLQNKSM
T13 sequence (O14965 whole entry): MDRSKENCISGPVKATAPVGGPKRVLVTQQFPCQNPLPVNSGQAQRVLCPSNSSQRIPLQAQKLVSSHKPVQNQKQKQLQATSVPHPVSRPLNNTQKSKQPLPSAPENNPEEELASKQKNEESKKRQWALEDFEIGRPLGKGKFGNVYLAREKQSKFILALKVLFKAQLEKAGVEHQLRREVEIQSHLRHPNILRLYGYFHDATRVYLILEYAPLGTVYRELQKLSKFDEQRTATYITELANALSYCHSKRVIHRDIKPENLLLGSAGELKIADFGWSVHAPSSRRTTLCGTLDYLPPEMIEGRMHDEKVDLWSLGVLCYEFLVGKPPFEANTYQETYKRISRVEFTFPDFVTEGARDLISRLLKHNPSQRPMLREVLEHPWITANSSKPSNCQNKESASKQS
T3 sequence (P53667 whole entry): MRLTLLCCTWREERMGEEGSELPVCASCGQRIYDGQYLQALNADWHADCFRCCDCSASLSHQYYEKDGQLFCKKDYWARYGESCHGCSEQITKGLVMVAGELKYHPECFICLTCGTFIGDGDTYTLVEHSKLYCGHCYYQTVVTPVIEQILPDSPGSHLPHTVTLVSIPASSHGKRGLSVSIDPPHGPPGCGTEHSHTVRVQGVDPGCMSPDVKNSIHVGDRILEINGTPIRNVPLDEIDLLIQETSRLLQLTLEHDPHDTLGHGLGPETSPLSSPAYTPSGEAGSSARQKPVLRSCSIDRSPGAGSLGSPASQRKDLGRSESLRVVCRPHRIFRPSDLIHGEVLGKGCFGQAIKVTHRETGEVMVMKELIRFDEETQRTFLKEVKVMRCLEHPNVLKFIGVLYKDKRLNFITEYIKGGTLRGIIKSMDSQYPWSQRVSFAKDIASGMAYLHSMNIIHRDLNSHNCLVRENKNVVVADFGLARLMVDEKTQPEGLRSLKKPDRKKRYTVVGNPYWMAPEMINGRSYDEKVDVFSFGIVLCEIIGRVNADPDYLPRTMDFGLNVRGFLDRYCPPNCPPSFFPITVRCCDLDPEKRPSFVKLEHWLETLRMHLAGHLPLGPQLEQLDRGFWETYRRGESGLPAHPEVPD
T9 sequence (P04629 33-796): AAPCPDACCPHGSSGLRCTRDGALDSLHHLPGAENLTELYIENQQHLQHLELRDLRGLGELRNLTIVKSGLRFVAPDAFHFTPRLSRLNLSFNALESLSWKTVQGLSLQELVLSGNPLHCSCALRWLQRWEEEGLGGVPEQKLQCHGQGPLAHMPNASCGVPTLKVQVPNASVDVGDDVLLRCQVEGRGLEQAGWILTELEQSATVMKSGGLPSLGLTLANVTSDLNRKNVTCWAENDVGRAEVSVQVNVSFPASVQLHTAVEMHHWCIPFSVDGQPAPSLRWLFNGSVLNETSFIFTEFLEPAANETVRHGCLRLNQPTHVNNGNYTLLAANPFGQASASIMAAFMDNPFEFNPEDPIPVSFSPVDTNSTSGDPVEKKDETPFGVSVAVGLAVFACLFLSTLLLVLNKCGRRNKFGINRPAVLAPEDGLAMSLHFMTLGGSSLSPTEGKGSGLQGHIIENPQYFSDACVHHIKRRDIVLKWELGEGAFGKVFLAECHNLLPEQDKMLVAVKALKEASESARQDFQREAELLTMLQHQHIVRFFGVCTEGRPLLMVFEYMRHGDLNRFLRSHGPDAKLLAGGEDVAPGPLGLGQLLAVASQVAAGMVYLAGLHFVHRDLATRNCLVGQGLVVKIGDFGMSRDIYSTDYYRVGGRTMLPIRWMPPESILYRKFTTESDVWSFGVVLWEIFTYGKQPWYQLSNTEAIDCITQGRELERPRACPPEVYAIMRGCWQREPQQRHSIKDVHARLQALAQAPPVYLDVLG
T4 sequence (P45984 whole entry): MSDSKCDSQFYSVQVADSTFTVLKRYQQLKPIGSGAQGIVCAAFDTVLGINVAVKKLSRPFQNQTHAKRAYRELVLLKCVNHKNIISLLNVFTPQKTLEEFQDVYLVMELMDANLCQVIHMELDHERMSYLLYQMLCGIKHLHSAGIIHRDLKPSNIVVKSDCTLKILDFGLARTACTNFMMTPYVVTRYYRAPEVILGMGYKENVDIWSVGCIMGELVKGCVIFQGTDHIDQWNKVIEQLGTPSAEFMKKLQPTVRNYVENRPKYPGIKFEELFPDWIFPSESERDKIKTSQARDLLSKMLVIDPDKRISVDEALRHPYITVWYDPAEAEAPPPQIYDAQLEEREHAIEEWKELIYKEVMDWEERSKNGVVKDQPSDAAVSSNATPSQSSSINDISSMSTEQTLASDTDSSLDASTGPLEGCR
T29 sequence (Q9P289 whole entry): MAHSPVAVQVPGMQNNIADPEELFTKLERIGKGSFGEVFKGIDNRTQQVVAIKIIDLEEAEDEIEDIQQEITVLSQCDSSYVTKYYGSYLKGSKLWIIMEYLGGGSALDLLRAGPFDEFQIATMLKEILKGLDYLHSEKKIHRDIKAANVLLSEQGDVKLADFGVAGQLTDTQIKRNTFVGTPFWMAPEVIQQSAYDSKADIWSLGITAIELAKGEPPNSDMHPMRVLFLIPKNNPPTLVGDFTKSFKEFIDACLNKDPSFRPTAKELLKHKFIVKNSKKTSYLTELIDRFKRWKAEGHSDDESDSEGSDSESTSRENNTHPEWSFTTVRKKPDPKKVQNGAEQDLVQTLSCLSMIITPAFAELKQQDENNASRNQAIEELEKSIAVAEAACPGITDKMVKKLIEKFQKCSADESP
T33 sequence (P11309 whole entry): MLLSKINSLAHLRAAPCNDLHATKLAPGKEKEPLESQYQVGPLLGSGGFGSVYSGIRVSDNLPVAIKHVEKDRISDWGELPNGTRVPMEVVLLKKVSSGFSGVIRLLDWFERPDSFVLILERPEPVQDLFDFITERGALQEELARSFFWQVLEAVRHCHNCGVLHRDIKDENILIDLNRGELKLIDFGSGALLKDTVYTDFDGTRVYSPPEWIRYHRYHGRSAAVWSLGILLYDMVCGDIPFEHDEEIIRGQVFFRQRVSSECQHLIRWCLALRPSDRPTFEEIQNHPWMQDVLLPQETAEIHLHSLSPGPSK

C#Cc1cccc(Nc2ncnc3cc(OC)c(OCCCN4CCOCC4)cc23)c1 [NRC-2694, N-(3-ethynylphenyl)-7-methoxy-6-[3-(4-morpholinyl)propoxy]-4-quinazolinamine]
remaining binding at 10 µM (FLT3(K663Q)): 56% | remaining binding at 10 µM (TNK2): 37% | remaining binding at 10 µM (LIMK1): 62% | remaining binding at 10 µM (JNK2): 95% | remaining binding at 10 µM (DCAMKL1): 92% | remaining binding at 10 µM (RAF1): 100% | remaining binding at 10 µM (MAP4K3): 52% | remaining binding at 10 µM (PIK3CB): 100% | remaining binding at 10 µM (TRKA): 100% | remaining binding at 10 µM (CAMK2A): 63% | remaining binding at 10 µM (RIPK2): 2.4% | remaining binding at 10 µM (MYLK): 62% | remaining binding at 10 µM (AURKA): 100% | remaining binding at 10 µM (ADCK3): 14% | remaining binding at 10 µM (FGFR4): 69% | remaining binding at 10 µM (SgK085): 84% | remaining binding at 10 µM (YSK1): 69% | remaining binding at 10 µM (LIMK2): 100% | remaining binding at 10 µM (MEK1): 50% | remaining binding at 10 µM (CSF1R): 50% | remaining binding at 10 µM (ACVR1): 61% | remaining binding at 10 µM (PIM3): 23% | remaining binding at 10 µM (MARK2): 70% | remaining binding at 10 µM (BTK): 77% | remaining binding at 10 µM [1]: 57% | remaining binding at 10 µM (AURKC): 47% | remaining binding at 10 µM (FRK): 10% | remaining binding at 10 µM (CAMK2B): 77% | remaining binding at 10 µM (MST4): 29% | remaining binding at 10 µM (PIK3CA): 100% | remaining binding at 10 µM [2]: 100% | remaining binding at 10 µM (RIOK1): 36% | remaining binding at 10 µM (PIM1): 39%
